Consider seven compounds from paper PMC10860701 (ACS Medicinal Chemistry Letters, 2024).

Experiment [1] deals with HT-22 cells. The experiment can be described thus: TNFα-induced ROS. The experiment is classed as cell-based, mouse. To be noted: for effect on TNFα-induced ROS, in words / ROS suppression at 40 μM: 1 μg/mL TNFα; for effect on TNFα-induced ROS, in words: all concentrations tested; for ROS suppression at 40 μM: 40 μM compound, Figure 4A.
The next experiment relates to THP-1 cells. Description: Measurement of cellular NAD+ levels in THP-1 cell cultures. The experiment is classed as cell-based, human. To be noted: for ability to raise NAD+ levels compared with parent NP-A3-B2: initial screening, 3 μM, 24 h, data not shown.
The target in another experiment is NAMPT (Homo sapiens, UniProt P43490). Description: NAMPT coupled enzyme activity assay. The experiment is classed as biochemical.
Experiment [2] relates to HT-22 cells. The experiment can be described thus: Glutamate-induced ROS. The class given is cell-based, mouse. To be noted: 75 mM glutamate, 20 μM and 40 μM compound, Figure 4D.

“Also recorded” adds a separate entry of the source.

NAMPT, sequence (P43490 whole entry): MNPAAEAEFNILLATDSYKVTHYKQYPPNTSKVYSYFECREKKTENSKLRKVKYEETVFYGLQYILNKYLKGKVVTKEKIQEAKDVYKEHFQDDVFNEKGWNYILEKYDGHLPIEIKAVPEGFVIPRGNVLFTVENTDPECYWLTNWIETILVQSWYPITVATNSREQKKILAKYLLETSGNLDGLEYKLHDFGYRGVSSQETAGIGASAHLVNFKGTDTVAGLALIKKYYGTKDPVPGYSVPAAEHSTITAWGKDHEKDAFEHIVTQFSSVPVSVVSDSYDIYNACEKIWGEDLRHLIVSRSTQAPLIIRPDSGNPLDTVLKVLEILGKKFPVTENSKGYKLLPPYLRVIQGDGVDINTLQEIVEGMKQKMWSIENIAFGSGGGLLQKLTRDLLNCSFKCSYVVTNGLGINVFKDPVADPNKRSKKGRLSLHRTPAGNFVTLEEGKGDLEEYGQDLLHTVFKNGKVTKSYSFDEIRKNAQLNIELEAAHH

Take `COc1ccc(CN(CCC2(C(C)C)CCOC(C)(C)C2)C(=O)c2ccsc2)cc1` (stereo not shown) [JGB-1-127]: in the experiment with HT-22 cells [1], the “effect on TNFα-induced ROS, in words” value was “did not inhibit ROS generation”. `CC(C)C1(CCN(Cc2ccc3[nH]ccc3c2)C(=O)c2ccco2)CCOC(C)(C)C1` (stereo not shown) [JGB-1-134]: the “effect on TNFα-induced ROS, in words” value with HT-22 cells [1] is reported as “did not inhibit ROS generation”. Also, the “ability to raise NAD+ levels compared with parent NP-A3-B2” value in the experiment on THP-1 cells was “significantly greater ability to raise NAD^+ levels”. As for `COc1ccc(CN(CCC2(C(C)C)CCOC(C)(C)C2)C(=O)c2cccs2)cc1` (stereo not shown) [JGB-1-137], the “ROS suppression at 40 μM” value with HT-22 cells [1] was “significantly suppressed ROS”. `COc1ccc(CN(CCC2(C(C)C)CCOC(C)(C)C2)C(=O)c2cnc[nH]2)cc1` (stereo not shown) [JGB-1-147]: the “NAMPT enzyme activity, in words” value on NAMPT was “inhibitory activity; also recorded: inhibits NAMPT”. As to `CC(C)C1(CCN(Cc2ccc(N(C)C)cc2)C(=O)c2ccco2)CCOC(C)(C)C1` (stereo not shown) [JGB-1-155], in the experiment on HT-22 cells [2], the “ROS levels under glutamate insult” value is given as “decreased ROS levels below that of the vehicle-treated control”. Also, in the experiment on HT-22 cells [1], the “ROS suppression at 40 μM” value is listed as “significantly suppressed ROS”. Further, the “reduction of TNFα-induced ROS, confirmation assay” value in the experiment on HT-22 cells [1] (20 μM and 40 μM compound, Figure 4B) is given as “significant reduction”. The “concentration response for FK866 in the presence of compound” value in the experiment on THP-1 cells (THP-1 NAD+, Figure 3B) is on record as “right-shifted”. The “potency in THP-1 cell cultures relative to NP-A3-B2” value with THP-1 cells (full concentration-response, NAD+) is listed as “improved potency”. Also, the “ability to raise NAD+ levels compared with parent NP-A3-B2” value in the experiment with THP-1 cells was “significantly greater ability to raise NAD^+ levels”. With `COc1ccc(CN(CCC2(C(C)C)CCOC(C)(C)C2)C(=O)c2ccco2)cc1` (stereo not shown) [NP-A3-B2], in the experiment on HT-22 cells [1], the “ROS suppression at 40 μM” value is “significantly suppressed ROS”. As for `O=C(NCc1ccncc1)Nc1ccc(S(=O)(=O)N2CC3CCC(C2)O3)cc1` [SBI-797812, reference compound], the “effect on TNFα-induced ROS, in words” value in the experiment with HT-22 cells [1] is “no significant effect on ROS”.
